Results taken from patent US5475014A, “Oxazolidone derivative” (Eisai Co., Ltd., priority 1991, dated 1995).
Where a name gives a salt, the structure may show the parent alone.

Experiments:
MAO-B = molecular target: T1, MAO-B (Rattus norvegicus, UniProt P19643); experiment: MAO-B inhibition activity with rat forebrain (14C-PEA substrate); type: biochemical, rat (male Wistar); settings: for IC50: PEA 20 μM, read-out: Inhibiting activity MAO-B, IC50; for Inhibiting activity MAO-B (% at 10^-6 M) / inhibition at 1 µM: 10^-6 M; for inhibition at 1 µM: read-out: Inhibiting activity MAO-B (% at 10^-6 M)
T1 construct: suspension of 1 part by volume of the forebrains of male Wistar rats; from tissue; host or cells: forebrain of male Wistar rats, suspension in potassium phosphate buffer
T1 sequence (P19643 1-520): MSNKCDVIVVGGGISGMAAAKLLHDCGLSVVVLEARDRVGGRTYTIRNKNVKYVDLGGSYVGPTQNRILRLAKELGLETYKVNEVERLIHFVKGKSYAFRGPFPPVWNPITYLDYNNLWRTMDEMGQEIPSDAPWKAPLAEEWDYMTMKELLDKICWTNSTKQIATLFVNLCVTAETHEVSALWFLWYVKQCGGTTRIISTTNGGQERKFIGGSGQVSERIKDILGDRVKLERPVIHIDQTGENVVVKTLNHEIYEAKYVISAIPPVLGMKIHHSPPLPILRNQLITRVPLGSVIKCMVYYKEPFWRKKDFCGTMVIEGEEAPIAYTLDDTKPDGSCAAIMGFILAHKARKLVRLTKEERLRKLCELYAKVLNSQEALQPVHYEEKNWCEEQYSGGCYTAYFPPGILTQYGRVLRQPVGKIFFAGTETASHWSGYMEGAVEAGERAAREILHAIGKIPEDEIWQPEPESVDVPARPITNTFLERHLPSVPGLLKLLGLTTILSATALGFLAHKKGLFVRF
Experimental: (§1) Determination of MAO inhibition activity with the use of rat forebrain:
(§2) The MAO inhibition activity was determined by a method of Prada et al. (J. Pharmacol. Exp. Ther., 248, 400-414 (1989)).
(§3) The enzyme reaction was conducted in 300 μl of a solution having the following composition:
(§4) ^14 C-labelled enzyme substrate
(§5) The enzyme source used was a suspension of 1 part by volume of the forebrains of male Wistar rats in 5 parts by volume of a 0.1M potassium phosphate buffer (pH 7.4). The enzyme source was mixed with the test compound and the mixture was prewarmed at 37° C. for 10 min. Then the enzyme substrate was added thereto to initiate the enzyme reaction. After 10 min, 200 μl of 2N hydrochloric acid was added to terminate the reaction.
(§6) As the substrates for MAO-A and MAO-B, 5-HT (serotonin) and PEA (β-phenethylamine) each labelled with ^14 C were used, respectively. The specific radioactivities of 5-HT and PEA were regulated to 11.1 MBq/mmol and 29.6 MBq/mmol, respectively, and the concentrations of them were 200 μM and 20 μM, respectively, in the reaction.
(§7) The test compound was dissolved in distilled water so that an intended concentration could be obtained in the enzyme reaction. When the test compound was insoluble in water, it was dissolved in dimethyl sulfoxide to obtain a 10% solution.
(§8) Diethyl ether and n-heptane were used as […], respectively. After the termination of the enzyme reaction, 3 ml of the solvent was added to the reaction mixture and shaken for 10 min. After centrifugation at 3,000 rpm for about 10 min, the lower aqueous layer was frozen in dry ice/acetone. The upper organic layer was recovered by decantation and the radioactivity thereof was determined with a liquid scintillation counter.
(§9) The inhibiting activities of the test compounds against MAO A and MAO B are given at the concentrations of 10^-7 M and 10^-6 M or by IC50 values.

MAO-A = molecular target: T2, MAO-A (Rattus norvegicus, UniProt P21396); experiment: MAO-A inhibition activity with rat forebrain (14C-5-HT substrate); type: biochemical, rat (male Wistar); settings: for inhibition at 0.1 µM / Inhibiting activity MAO-A (% at 10^-7 M): 10^-7 M; for inhibition at 0.1 µM: read-out: Inhibiting activity MAO-A (% at 10^-7 M); for IC50: 5-HT 200 μM, read-out: Inhibiting activity MAO-A, IC50
T2 construct: suspension of 1 part by volume of the forebrains of male Wistar rats; from tissue; host or cells: forebrain of male Wistar rats, suspension in potassium phosphate buffer
T2 sequence (P21396 1-526): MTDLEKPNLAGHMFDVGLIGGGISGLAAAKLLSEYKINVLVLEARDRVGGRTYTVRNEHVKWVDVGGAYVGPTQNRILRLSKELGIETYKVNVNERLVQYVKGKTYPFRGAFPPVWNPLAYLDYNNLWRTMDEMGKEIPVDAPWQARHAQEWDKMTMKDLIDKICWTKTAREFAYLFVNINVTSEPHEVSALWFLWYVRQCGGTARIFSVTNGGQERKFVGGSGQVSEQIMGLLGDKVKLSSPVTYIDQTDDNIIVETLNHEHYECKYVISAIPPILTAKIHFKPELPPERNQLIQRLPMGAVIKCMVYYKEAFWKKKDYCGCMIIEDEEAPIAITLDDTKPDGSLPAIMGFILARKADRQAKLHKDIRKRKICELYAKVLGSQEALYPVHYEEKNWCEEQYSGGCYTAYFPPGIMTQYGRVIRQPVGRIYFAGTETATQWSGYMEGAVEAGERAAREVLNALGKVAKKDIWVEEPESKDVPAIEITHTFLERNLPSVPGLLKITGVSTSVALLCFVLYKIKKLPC
Experimental: as §1, §2, §3, §4, §5, §6, §7, §8, §9

Structure (SMILES) | inhibition at 0.1 µM (MAO-A) [%] | inhibition at 1 µM (MAO-B) [%] | also measured
COCC1CN(c2ccc3nc(C(O)CCC#N)sc3c2)C(=O)O1 (stereo not drawn) [Example 35] | 27 | – | Inhibiting activity MAO-B (% at 10^-6 M) (MAO-B): 0%
COCC1CN(c2ccc3nc(CCCC#N)sc3c2)C(=O)O1 (stereo not drawn) [Example 14] | – | – | IC50 (MAO-B): 579 µM; IC50 (MAO-A): 0.014 µM
COCC1CN(c2ccc3nc(C(O)CCCO)sc3c2)C(=O)O1 (stereo not drawn) [Example 30] | 42 | 15 | –
COCC1CN(c2ccc3nc(N(C)CCC#N)sc3c2)C(=O)O1 (stereo not drawn) [Example 28] | – | – | IC50 (MAO-B): 990 µM; IC50 (MAO-A): 0.031 µM
COCC1CN(c2ccc3nc(/C=C/CCC#N)sc3c2)C(=O)O1 (stereo not drawn) [Example 21] | 10 | 8 | –
CN(CCC#N)c1nc2ccc(N3CC(CO)OC3=O)cc2s1 (stereo not drawn) [Example 29] | – | – | IC50 (MAO-B): 2240 µM; IC50 (MAO-A): 0.019 µM
N#CCCCc1nc2ccc(N3C[C@@H](CO)OC3=O)cc2s1 [Example 19] | 61 | 16 | –
COC[C@H]1CN(c2ccc3nc(C4CCC(O)O4)sc3c2)C(=O)O1 (stereo partly drawn) [Example 7] | 24 | 10 | –
COCC1CN(c2ccc3nc(N(CCC#N)CCC#N)sc3c2)C(=O)O1 (stereo not drawn) [Example 43] | – | 14 | inhibition at 1 µM (MAO-A; 10^-6 M, read-out: Inhibiting activity MAO-A (at 10^-6 M)): 87%
COC[C@H]1CN(c2ccc3nc(CCCCC#N)sc3c2)C(=O)O1 [Example 23] | – | – | IC50 (MAO-B): > 100 µM; IC50 (MAO-A): 0.028 µM
N#CC1CCN(c2nc3ccc(N4CC(CO)OC4=O)cc3s2)CC1 (stereo not drawn) [Example 42] | 63 | 5 | –
COCC1CN(c2ccc3nc(C(O)CC=NO)sc3c2)C(=O)O1 (stereo not drawn) [Example 8, 3-[2-(1-Hydroxy-3-hydroxyiminopropyl)benzothiazol-6-yl]-5-methoxymethyl-2-oxazolidinone] | 80 | 13 | –
COCC1CN(c2ccc3nc(C(=O)CCC#N)sc3c2)C(=O)O1 (stereo not drawn) [Example 31] | 54 | 12 | –
COC[C@H]1CN(c2ccc3nc(CCCC#N)sc3c2)C(=O)O1 [Example 16] | 71 | 17 | –
COCC1CN(c2ccc3nc(C(C)(O)CCC#N)sc3c2)C(=O)O1 (stereo not drawn) [Example 36] | – | 1 | IC50 (MAO-A): 0.0068 µM
COC[C@H]1CN(c2ccc3nc(N4CCC(C#N)CC4)sc3c2)C(=O)O1 [Example 13, (R)-3-[2-(4-Cyanopiperidino)benzothiazol-6-yl]-5-methoxymethy]-2-oxazolidinone hydrochloride] | – | – | IC50 (MAO-B): 598 µM; IC50 (MAO-A): 0.29 µM
COCC1CN(c2ccc3nc(C(O)CCC#N)sc3c2)C(=O)O1 (stereo not drawn) [Example 27] | – | – | Inhibiting activity MAO-B (% at 10^-6 M) (MAO-B): 10%; IC50 (MAO-A): 0.0067 µM
COC[C@@H]1CN(c2ccc3nc(CCCCC#N)sc3c2)C(=O)O1 [Example 22] | 75 | 7 | –
COC[C@H]1CN(c2ccc3nc(C(C)(C)CCC#N)sc3c2)C(=O)O1 [Example 25] | 73 | 7 | –
COCC1CN(c2ccc3sc(NC(=O)CC#N)nc3c2)C(=O)O1 (stereo not drawn) [Example 45] | 40 | 10 | –
COCC1CN(c2ccc3nc(C(CCC#N)=NOC)sc3c2)C(=O)O1 (stereo not drawn) [Example 39] | 15 | 2 | –

Structure (SMILES) | inhibition at 0.1 µM (MAO-A) [%] | inhibition at 1 µM (MAO-B) [%] | also measured
COCC1CN(c2ccc3nc(NCCC#N)sc3c2)C(=O)O1 (stereo not drawn) [Example 32] | 23 | 7 | –
COCC1CN(c2ccc3sc(C)nc3c2)C(=O)O1 (stereo not drawn) [Example 44] | 6 | 4 | –
N#CCCNc1nc2ccc(N3CC(CO)OC3=O)cc2s1 (stereo not drawn) [Example 33] | 5 | 10 | –
COC[C@@H]1CN(c2ccc3nc(CCCC#N)sc3c2)C(=O)O1 [Example 17] | 24 | 9 | –
COCC1CN(c2ccc3sc(CCCC#N)nc3c2)C(=O)O1 (stereo not drawn) [Example 47] | 52 | 9 | –
COCC1CN(c2ccc3nc(CO)sc3c2)C(=O)O1 (stereo not drawn) [Example 2, 3-(2-Hydroxymethylbenzothiazol-6-yl)-5-methoxymethyl-2-oxazolidinone] | 64 | 11 | –
N#CCCCc1nc2ccc(N3C[C@H](CO)OC3=O)cc2s1 [Example 18] | – | – | IC50 (MAO-B): 930 µM; IC50 (MAO-A): 0.021 µM
COCC1CN(c2ccc3nc(C(CCC#N)N4CCCC4)sc3c2)C(=O)O1 (stereo not drawn) [Example 40] | 8 | 6 | –
COCC1CN(c2ccc3nc(C(N)CCC#N)sc3c2)C(=O)O1 (stereo not drawn) [Example 41] | 9 | 3 | –
COCC1CN(c2ccc3nc(CNCC#N)sc3c2)C(=O)O1 (stereo not drawn) [Example 4, 3-[(2-Cyanomethylaminomethylbenzothiazol)-6-yl]-5-methoxymethyl-2-oxazolidinone] | – | 13 | IC50 (MAO-A): 0.039 µM
COCC1CN(c2ccc3nc(C4CCC(=O)O4)sc3c2)C(=O)O1 (stereo not drawn) [Example 34] | – | – | Inhibiting activity MAO-B (% at 10^-6 M) (MAO-B): 8%; Inhibiting activity MAO-A (% at 10^-7 M) (MAO-A): 11%
COCC1CN(c2ccc3nc(C(CCC#N)=NO)sc3c2)C(=O)O1 (stereo not drawn) [Example 38] | 32 | 11 | –
COC[C@H]1CN(c2ccc3nc([C@@H](O)CCC#N)sc3c2)C(=O)O1 [Example 9, 3-[2-(1(S)-Hydroxy-3-cyanopropyl)benzothiazol-6-yl]-5(R)-methoxymethyl-2-oxazolidinone] | 87 | 13 | –
N#CCCCCc1nc2ccc(N3C[C@H](CO)OC3=O)cc2s1 [Example 24] | – | – | IC50 (MAO-B): > 100 µM; IC50 (MAO-A): 0.137 µM
COCC1CN(c2ccc3sc(C(O)CCC#N)nc3c2)C(=O)O1 (stereo not drawn) [Example 46] | 7 | 3 | –
COCC1CN(c2ccc3nc(COCC#N)sc3c2)C(=O)O1 (stereo not drawn) [Example 3] | – | 11 | IC50 (MAO-A): 0.005 µM
COCC1CN(c2ccc3nc(CCCCC#N)sc3c2)C(=O)O1 (stereo not drawn) [Example 20] | 15 | 14 | –
COCC1CN(c2ccc3nc(CCC#N)sc3c2)C(=O)O1 (stereo not drawn) [Example 15] | – | – | IC50 (MAO-B): 487 µM; IC50 (MAO-A): 0.256 µM
COCC1CN(c2ccc3nc(C4CCC(=O)O4)sc3c2)C(=O)O1 (stereo not drawn) [Example 5, 3-[2-(5-Oxotetrahydrofuran-2-yl)benzothiazol-6-ul]-5methoxymethyl-2-oxazolidinone] | – | 11 | Inhibiting activity MAO-A (% at 10^-7 M) (MAO-A): 78%
COCC1CN(c2ccc3nc(COC(=O)c4ccccc4)sc3c2)C(=O)O1 (stereo not drawn) [Example 1, 3-(2-Benzoyloxymethylbenzothiazol-6-yl)-5-methoxymethyl-2-oxazolidinone] | 93 | 15 | –
CC(C)(CCC#N)c1nc2ccc(N3C[C@H](CO)OC3=O)cc2s1 [Example 26] | 73 | 7 | –
